For test [1], the target named is T1, P. aeruginosa T3SS (Pseudomonas aeruginosa, UniProt P95434). Description: T3SS-mediated secretion assay. The note with it: for potency increase in the β-lactamase secretion assay over the unoptimized compound: 37a vs 34o, 37b vs 34r. It counts as cell-based.
Test [2] addresses T1, P. aeruginosa T3SS. It counts as cell-based. The note with it: for IC50: read-out: translocation IC50, CHO cells + P. aeruginosa PA99U, LDH release. In general terms: Release of lactate dehydrogenase indicates damage to the cell membrane.
The subject of test [3] is P. aeruginosa T3SS. The note with it: read-out: translocation IC50; activity in translocation assays; cited from earlier work.

Read-outs that look alike come from different tables or passages of the source.

Regarding `CC[C@@H](Oc1ncc(Cl)cc1Cl)C(=O)NCc1ccc2sccc2c1` [Compound 37a, (R)-N-[(Benzothiophene-5-yl)methyl]-2-[(3,5-dichloropyridin-2-yl)oxy]butanamide], the “potency increase in the β-lactamase secretion assay over the unoptimized compound” value in test [1] turned out to be 6 fold. For `CC[C@@H](Oc1ncc(Cl)cc1Cl)C(=O)NCc1ccc2[nH]ccc2c1` [Compound 37b, (R)-N-[(Indol-5-yl)methyl]-2-[(3,5-dichloropyridin-2-yl)oxy]butanamide], the “improvement in the translocation assay over the unoptimized compound” value in test [2] (37b vs 34r) was found to be 2.5 fold. For the same molecule, the “potency increase in the β-lactamase secretion assay over the unoptimized compound” value in test [1] came to 2.6 fold. Usually IC50 stands for the point on the concentration scale where inhibition reaches its midpoint. For `O=C(NN=Cc1cc(Br)cc(Br)c1O)c1ccc([N+](=O)[O-])cc1` [INP-007], the 50% inhibitory concentration (IC50) in test [3] was 0.8 µM.

Turning to “N-(Benzothiophene-5-yl)-2-(2,4-dichlorophenoxy)propanamide [Compound 34o]”, the concentration for half-maximal inhibition (IC50) was 5.3 ± 3.7 µM in test [2] and 6 ± 1.6 µM in test [1] (read-out: secretion IC50). “N-[(Benzimidazol-5-ylmethyl])-2-(2,4-dichlorophenoxy)propanamide [Compound 34q]”: in test [2], the 50% inhibitory concentration (IC50) came out at 33 ± 8 µM.
